From paper PMC6918900, “Concentration-Dependent Activity of Hydromethylthionine on Cognitive Decline and Brain Atrophy in Mild to Moderate Alzheimer’s Disease” (Journal of Alzheimer's Disease, 2019)

Assays:
Assay type in all cases: in vivo, human
[1] = tested on: patients with mild to moderate Alzheimer's disease; assay: MRI whole brain volume (WBV) change over 65 weeks by plasma exposure; details: for WBV Difference ± SEM: split by 8 mg/day Cmax,ss median
Text: (§1) Pharmacokinetic analyses were undertaken using plasma concentration data from patients who participated in either of two completed Phase III trials which have been described previously [[35, 36]]. In brief, the first (TRx-237-015) was a 15-month study which recruited 890 patients from 115 sites across 16 countries in EU, North America, Asia, and Russia. Patients had to be <90 years of age and have a diagnosis of mild to moderate probable AD according to National Institute of Aging (NIA) and Alzheimer’s Association (AA) criteria and a Mini-Mental State Examination (MMSE) score of 14–26 inclusive and with a Clinical Dementia Rating (CDR) total score of 1 or 2. The second study (TRx-237-005) was an 18-month trial which recruited 800 patients from 108 sites in Canada, United States, Australia, and Europe. Patients had to meet the same age and diagnosis criteria, except that they were required to have a MMSE score of 20–26 inclusive and a CDR total score of 0.5 or 1.0. Concomitant use of AChEIs or memantine (or both) was permitted in both studies provided this was at a stable dose for at least 18 weeks before randomization. Concomitant use of serotonergic antidepressant, antipsychotic (except clozapine or olanzapine), and sedative medications was also permitted at stable doses where clinically feasible. Patients were randomly assigned to receive LMTM at doses of 250, 150, or 8 mg/day in Study 015 and doses of 200 or 8 mg/day in Study TRx-237-005. Randomization in both studies was stratified according to geographical region, use of AD-labelled co-medications, and severity of AD. The co-primary outcomes in both studies were the Alzheimer’s Disease Assessment Scale–cognitive subscale, 11-item version (ADAS-cog11) and the Alzheimer’s Disease Co-operative Study–Activities of Daily Living, 23-item version (ADCS-ADL23) scale measured at baseline and every 3 months. MRI scans were undertaken at screening or baseline and at 3-month intervals. MRI acquisition protocol and parameters were standardized across sites and all data were centrally collected, quality-controlled, and analyzed blind by an imaging core lab (Bioclinica). Volumetric data were used to measure changes in whole brain volume (WBV, which provides a measure of the volume of grey and white matter), lateral ventricular volume (LVV), and other regional volumes including hippocampus, although only the global measures are reported in the present study. Baseline volumes were assessed using FreeSurfer 5.3, and volume change was assessed using Boundary Shift Integral and Tensor Based Morphometry for regional structures. Full details and study protocols for these two trials are available [[35, 36]].
(§2) Having shown a concentration-dependent response for cognitive decline, a mixed-effects model for repeated measures analysis was used to characterize further the relationship between each efficacy endpoint and parent MT plasma exposure (steady state Cmax,ss) according to the following formula: pharmacological activity∼plasma-level×visit+co-medication-status×visit+co-medication-status×plasma-level+geographical-region+CDR-at-baseline+baseline-score×visit
(§3) The following terms were categorical variables in the models: plasma exposure (Cmax,ss) (7 levels), visit (5 levels), co-medication status with AD drugs (2 levels), geographical region (2 levels), and CDR at baseline (3 levels). For the longitudinal analyses, plasma level was described by two levels (above or below threshold).

[2] = tested on: patients with mild to moderate Alzheimer's disease; assay: Hill equation concentration-response analysis (ADAS-cog11 and WBV)
Text: In addition to the exposure-response analyses described above, a further standard pharmacological concentration-response analysis was undertaken using the Hill equation [40] applied to the ADAS-cog11 and whole brain volume data to characterize the overall response profile quantitatively and to investigate the lower concentration limit of the treatment effect. The Hill equation was applied under the assumption of non-cooperativity and was applied with an additional linear term to permit trends occurring at high concentrations to be included in the model. […] This was fitted separately for LMTM added to approved symptomatic treatments and for those who took the drug as monotherapy, with parameters estimated using a non-linear least squares estimator.
In order to relate Cmax,ss values to theoretical doses, a linear model was fitted to the mean plasma concentrations at the 8, 150, 200 and 250 mg/day doses: estimated dose=22.22×(Cmax, ss-0.016) where dose is in mg/day and Cmax,ss is ng/ml units.

[3] = tested on: patients with mild to moderate Alzheimer's disease; assay: ADCS-ADL23 change over 65 weeks by plasma exposure; details: for ADCS-ADL Difference ± SEM: split by 8 mg/day Cmax,ss median
Text: as §1, §2, §3

[4] = tested on: patients with mild to moderate Alzheimer's disease; assay: MRI lateral ventricular volume (LVV) change over 65 weeks by plasma exposure; details: for LVV Difference ± SEM: split by 8 mg/day Cmax,ss median
Text: as §1, §2, §3

[5] = LMTM 8 mg/day as add-on therapy, Cmax,ss above vs below 0.373 ng/ml
[6] = LMTM 8 mg/day as monotherapy, Cmax,ss above vs below 0.373 ng/ml
[7] = LMTM 8 mg/day, low Cmax add-on versus high Cmax monotherapy
[8] = all patients, high vs low exposure split by Cmax,ss 0.373 ng/ml, 65 weeks
[9] = patients receiving LMTM 8 mg/day, split by Cmax,ss 0.373 ng/ml, 65 weeks

CN(C)c1ccc2c(c1)Sc1cc(N(C)C)ccc1N2 [LMTM, leuco-methylthioninium bis(hydromethanesulphonate)]
WBV Difference±SEM in change from baseline [1, 5]: 4.69±1.21 cm^3 | WBV Difference ± SEM ([1]; LMTM 8 mg/day as add-on therapy): 4.02 ± 1.17 cm3 | WBV Difference±SEM in change from baseline [1, 6]: 2.76±1.66 cm^3 | WBV Difference ± SEM ([1]; LMTM 8 mg/day as monotherapy): 1.07 ± 1.58 cm3 | WBV Difference±SEM in change from baseline [1, 7]: 11.54±1.87 cm^3 | WBV Difference±SEM in change from baseline [1, 8]: 3.55±1.10 cm^3 | WBV Difference ± SEM ([1]; all patients): 2.47 ± 0.92 cm3 | WBV Difference±SEM in change from baseline [1, 9]: 4.39±1.18 cm^3 | maximum predicted pharmacological activity as add-on therapy relative to monotherapy ([2]; Hill equation analysis): about half | plasma concentrations at which treatment effects reach a plateau ([2]; Hill equation estimates): 0.9 to 4.1 ng/mL | theoretical doses corresponding to the plateau ([2]; Hill equation estimates): 16 to 80 mg/day | lower limit of drug activity (plasma Cmax,ss) ([2]; monotherapy and add-on therapy, cognitive decline and whole brain atrophy): approximately 0.29 ng/ml | ADCS-ADL23 Difference±SEM in change from baseline [3, 5]: 1.32±1.04 | ADCS-ADL23 Difference±SEM in change from baseline [3, 6]: 0.46±1.47 | ADCS-ADL Difference ± SEM ([3]; LMTM 8 mg/day as monotherapy): 0.52 ± 1.38 | ADCS-ADL23 Difference±SEM in change from baseline [3, 7]: 6.14±1.64 | ADCS-ADL23 Difference±SEM in change from baseline [3, 8]: 0.54±0.94 | ADCS-ADL Difference ± SEM ([3]; all patients): 0.21 ± 0.81 | ADCS-ADL23 Difference±SEM in change from baseline [3, 9]: 1.22±1.01 | LVV Difference±SEM in change from baseline [4, 5]: –1.81±0.39 cm^3 | LVV Difference±SEM in change from baseline [4, 6]: –1.60±0.46 cm^3 | LVV Difference ± SEM ([4]; LMTM 8 mg/day as monotherapy): -0.82 ± 0.44 cm3 | LVV Difference±SEM in change from baseline [4, 7]: –3.15±0.62 cm^3 | LVV Difference±SEM in change from baseline [4, 8]: –1.52±0.34 cm^3 | LVV Difference ± SEM ([4]; all patients): -0.80 ± 0.30 cm3 | LVV Difference±SEM in change from baseline [4, 9]: –1.76±0.38 cm^3
